# Experimental data from patent US9963467B2, “Boronic acid derivatives and therapeutic uses thereof” (Rempex Pharmaceuticals, Inc., priority 2014, dated 2018).
# How the values were obtained:
# [1] = molecular target: CTX-M-14 (Escherichia coli, UniProt Q9L5C7); assay: Ki, nitrocefin cleavage by purified enzyme, CTX-M-14; format: biochemical; details: nitrocefin reporter substrate; read-out: Ki (CTX-M-14, NCF)
# Summary of the method: (§1)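 Readout: nitrocefin hydrolysis, A490 recorded every 10 sec over 10 min. Enzyme and inhibitor (varied concentrations) preincubated 10 min, RT, in reaction buffer before substrate addition.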
# [2] = system: ec308 (SHV-5); assay: Aztreonam potentiation (MPC@4), ec308; format: cell-based; details: BLI with aztreonam at 4 μg/mL
# [3] = molecular target: OXA-48 (Klebsiella pneumoniae, UniProt Q6XEC0); assay: Ki, nitrocefin cleavage by purified enzyme, OXA-48; format: biochemical; details: nitrocefin reporter substrate; read-out: Ki (OXA-48, NCF)
# Summary of the method: as §1
# [4] = system: KP1005 (CTX-M-14); assay: Aztreonam potentiation (MPC@4), KP1005; format: cell-based; details: BLI with aztreonam at 4 μg/mL
# [5] = system: ec302 (TEM-10); assay: Tigemonam potentiation (MPC@4), ec302; format: cell-based
# [6] = system: KP1009 (CTX-M-15); assay: organism not typed; format: cell-based
# [7] = system: KP1009 (CTX-M-15); assay: Tigemonam potentiation (MPC@4), KP1009; format: cell-based; details: BLI with tigemonam at 4 μg/mL
# [8] = system: ECL1002; assay: Aztreonam potentiation (MPC@4), ECL1002; format: cell-based; details: BLI with aztreonam at 4 μg/mL
# [9] = system: EC1010 (CMY-6); assay: organism not typed; format: cell-based
# [10] = system: KP1010 (SHV-12); assay: Aztreonam potentiation (MPC@4), KP1010; format: cell-based
# [11] = system: KP1010 (SHV-12); assay: Tigemonam potentiation (MPC@4), KP1010; format: cell-based
# [12] = system: KP1004 (KPC-2); assay: Biapenem potentiation (MPC@1), KP1004; details: BLI with biapenem at 1 μg/mL
# [13] = system: ECL1002; assay: Tigemonam potentiation (MPC@4), ECL1002; format: cell-based; details: BLI with tigemonam at 4 μg/mL
# [14] = system: KP1086 (OXA-48); assay: Biapenem potentiation (MPC@1), KP1086; details: BLI with biapenem at 1 μg/mL
# [15] = system: KP1005 (CTX-M-14); assay: Tigemonam potentiation (MPC@4), KP1005; format: cell-based; details: BLI with tigemonam at 4 μg/mL
# [16] = system: ec308 (SHV-5); assay: Tigemonam potentiation (MPC@4), ec308; format: cell-based
# [17] = molecular target: SHV-12 (Klebsiella pneumoniae, UniProt P0AD64, E235K/G234S/L31Q); assay: Ki, nitrocefin cleavage by purified enzyme, SHV-12; format: biochemical; details: nitrocefin reporter substrate; read-out: Ki (SHV-12, NCF)
# Summary of the method: as §1
# [18] = molecular target: KPC-2 (Klebsiella pneumoniae, UniProt Q9F663); assay: Ki, nitrocefin cleavage by purified enzyme, KPC-2; format: biochemical; details: nitrocefin reporter substrate; read-out: Ki (KPC-2, NCF)
# Summary of the method: as §1
# [19] = molecular target: P99 (Enterobacter cloacae, UniProt P05364); assay: Ki, nitrocefin cleavage by purified enzyme, P99; format: biochemical; details: nitrocefin reporter substrate; read-out: Ki (P99, NCF)
# Summary of the method: as §1
# [20] = system: EC1010 (CMY-6); assay: Tigemonam potentiation (MPC@4), EC1010; format: cell-based; details: BLI with tigemonam at 4 μg/mL
# [21] = molecular target: Pa AmpC (Pseudomonas aeruginosa, UniProt P24735); assay: Ki, nitrocefin cleavage by purified enzyme, Pa AmpC; format: biochemical; details: nitrocefin reporter substrate; read-out: Ki (Pa AmpC, NCF)
# Summary of the method: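 Nitrocefin hydrolysis by purified β-lactamase is followed at 490 nm every 10 sec for 10 min. Before substrate is added, enzyme sits with varying inhibitor concentrations for 10 min at room temperature. Ki comes from these cleavage profiles.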
# [22] = system: ec302 (TEM-10); assay: Aztreonam potentiation (MPC@4), ec302; format: cell-based; details: BLI with aztreonam at 4 μg/mL
# [23] = Monomer content of pH adjusted aqueous solutions (LC-UV); format: physicochemical; details: 1 mg/mL aqueous salt solution, pH adjusted to 7.6 to 8, LC-UV
# Summary of the method: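 Aqueous solutions at 1.00, 10.0 or 100 mg/mL (active fraction) brought to pH 7.6–8 with acid or base, compound fully dissolved. Injected within half an hour of preparation onto C18 reversed-phase LC (0.1% TFA water / 0.085% TFA methanol gradient); UV detection at 220, 254 and 300 nm.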
# [24] = system: KP1004 (KPC-2); assay: Aztreonam potentiation (MPC@4), KP1004; format: cell-based; details: BLI with aztreonam at 4 μg/mL
# Chain of KPC-2 (Q9F663 25-293, looked up, species assumed): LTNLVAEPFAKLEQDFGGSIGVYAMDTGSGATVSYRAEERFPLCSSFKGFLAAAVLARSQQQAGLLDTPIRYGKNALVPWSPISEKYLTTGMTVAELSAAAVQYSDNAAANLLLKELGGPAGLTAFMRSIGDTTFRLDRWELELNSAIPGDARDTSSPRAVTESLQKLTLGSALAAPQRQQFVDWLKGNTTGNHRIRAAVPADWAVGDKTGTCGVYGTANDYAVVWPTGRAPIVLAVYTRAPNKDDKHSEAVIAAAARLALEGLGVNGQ
# Chain of SHV-12 (P0AD64 22-286 L31Q/G234S/E235K): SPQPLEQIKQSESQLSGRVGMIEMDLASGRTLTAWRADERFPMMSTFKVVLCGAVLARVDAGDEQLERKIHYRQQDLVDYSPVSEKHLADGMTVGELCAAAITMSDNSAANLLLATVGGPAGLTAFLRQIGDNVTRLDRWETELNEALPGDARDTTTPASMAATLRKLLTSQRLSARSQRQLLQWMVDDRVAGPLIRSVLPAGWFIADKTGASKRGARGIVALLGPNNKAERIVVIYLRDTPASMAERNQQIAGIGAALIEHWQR
# Chain of Pa AmpC (P24735 27-397): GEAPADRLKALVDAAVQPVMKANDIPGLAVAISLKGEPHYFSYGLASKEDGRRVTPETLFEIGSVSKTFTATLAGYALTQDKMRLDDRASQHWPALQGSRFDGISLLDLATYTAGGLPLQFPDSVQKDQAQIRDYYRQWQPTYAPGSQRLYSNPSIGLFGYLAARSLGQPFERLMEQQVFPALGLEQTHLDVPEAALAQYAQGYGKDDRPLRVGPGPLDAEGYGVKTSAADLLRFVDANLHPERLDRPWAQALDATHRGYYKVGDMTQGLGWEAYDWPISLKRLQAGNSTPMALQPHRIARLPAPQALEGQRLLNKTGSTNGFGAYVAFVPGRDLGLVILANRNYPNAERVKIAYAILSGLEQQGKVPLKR
# Chain of OXA-48 (Q6XEC0 23-265, looked up, species assumed): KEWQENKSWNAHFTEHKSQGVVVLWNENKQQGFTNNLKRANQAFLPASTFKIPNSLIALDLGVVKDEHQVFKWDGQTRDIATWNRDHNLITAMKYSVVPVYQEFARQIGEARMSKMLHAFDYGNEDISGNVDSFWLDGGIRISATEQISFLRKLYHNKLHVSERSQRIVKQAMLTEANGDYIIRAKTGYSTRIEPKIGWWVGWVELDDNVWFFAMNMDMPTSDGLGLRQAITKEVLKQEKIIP
# Chain of CTX-M-14 (Q9L5C7 29-291): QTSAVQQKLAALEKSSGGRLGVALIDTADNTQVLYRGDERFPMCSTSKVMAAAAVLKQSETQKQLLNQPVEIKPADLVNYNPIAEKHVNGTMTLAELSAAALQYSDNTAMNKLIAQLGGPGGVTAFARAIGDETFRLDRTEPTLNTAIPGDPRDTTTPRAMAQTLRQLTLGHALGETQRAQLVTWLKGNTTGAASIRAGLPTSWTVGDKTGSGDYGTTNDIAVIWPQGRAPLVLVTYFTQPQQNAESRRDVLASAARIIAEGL
# Chain of P99 (P05364 21-381): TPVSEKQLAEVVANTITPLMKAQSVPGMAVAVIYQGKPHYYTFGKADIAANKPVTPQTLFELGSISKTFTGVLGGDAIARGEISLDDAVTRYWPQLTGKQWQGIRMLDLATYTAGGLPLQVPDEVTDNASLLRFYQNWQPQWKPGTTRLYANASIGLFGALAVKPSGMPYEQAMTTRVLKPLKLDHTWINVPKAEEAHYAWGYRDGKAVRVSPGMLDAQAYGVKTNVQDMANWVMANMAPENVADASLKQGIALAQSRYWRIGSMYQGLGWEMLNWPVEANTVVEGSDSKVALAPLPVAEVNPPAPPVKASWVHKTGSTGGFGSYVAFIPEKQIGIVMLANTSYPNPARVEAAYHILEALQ
SMILES,Ki [1],AZT MPC4 SHV-5 ec308 [2],Ki [3],AZT MPC4 CTX-M-14 KP1005 [4],TIG MPC4 TEM-10 ec302 [5],AZT MPC4 CTX-M-15 KP1009 [6],TIG MPC4 CTX-M-15 KP1009 [7],AZT MPC4 ECL1002 [8],AZT MPC4 CMY-6 EC1010 [9],TIG MPC4 SHV-12 KP1010 [11],BPM MPC1 KP1004 KPC-2 [12],TIG MPC4 ECL1002 [13],BPM MPC1 OXA-48 KP1086 [14],TIG MPC4 CTX-M-14 KP1005 [15],TIG MPC4 SHV-5 ec308 [16],Ki [17],Ki [18],Ki [19],TIG MPC4 CMY-6 EC1010 [20],Ki [21],also measured
"NC(=O)CC(=O)N[C@H]1Cc2cccc(C(=O)O)c2OB1O [E, reference compound]",< 0.001 µM,X (MIC of less than 1 ng/mL),< 0.001 µM,X (MIC of less than 1 ng/mL),Z (key: X: MIC of less than 1 ng/mL; Y: MIC of 1 μg/mL to 10 μg/mL; Z: MIC of greater than 10 μg/mL),X (key: X: MIC of less than 1 ng/mL; Y: MIC of 1 μg/mL to 10 μg/mL; Z: MIC of greater than 10 μg/mL),Y (MIC of 1 μg/mL to 10 μg/mL),X (MIC of less than 1 ng/mL),X (key: X: MIC of less than 1 ng/mL; Y: MIC of 1 μg/mL to 10 μg/mL; Z: MIC of greater than 10 μg/mL),X (key: X: MIC of less than 1 μg/mL; Y: MIC of 1 μg/mL to 10 μg/mL; Z: MIC of greater than 10 μg/mL),X (MIC of less than 1 μg/mL),X (MIC of less than 1 μg/mL),Y (MIC of 1 μg/mL to 10 μg/mL),Y (MIC of 1 μg/mL to 10 μg/mL),Y (key: X: MIC of less than 1 ng/mL; Y: MIC of 1 μg/mL to 10 μg/mL; Z: MIC of greater than 10 μg/mL),–,–,–,–,–,AZT MPC4 SHV-12 KP1010 [10]: X (key: X: MIC of less than 1 ng/mL; Y: MIC of 1 μg/mL to 10 μg/mL; Z: MIC of greater than 10 μg/mL)
"O=CN[C@H]1Cc2ccc(F)c(C(=O)O)c2OB1O [Compound 6, (R)-7-fluoro-3-formamido-2-hydroxy-3,4-dihydro-2H-benzo[e][1,2]oxaborinine-8-carboxylic acid]",< 0.001 µM,Y (MIC of 1 μg/mL to 10 μg/mL),0.001 to 0.01 µM,Y (MIC of 1 μg/mL to 10 μg/mL),Z (key: X: MIC of less than 1 ng/mL; Y: MIC of 1 μg/mL to 10 μg/mL; Z: MIC of greater than 10 μg/mL),Y (key: X: MIC of less than 1 ng/mL; Y: MIC of 1 μg/mL to 10 μg/mL; Z: MIC of greater than 10 μg/mL),Y (MIC of 1 μg/mL to 10 μg/mL),Y (MIC of 1 μg/mL to 10 μg/mL),Y (key: X: MIC of less than 1 ng/mL; Y: MIC of 1 μg/mL to 10 μg/mL; Z: MIC of greater than 10 μg/mL),Y (key: X: MIC of less than 1 ng/mL; Y: MIC of 1 μg/mL to 10 μg/mL; Z: MIC of greater than 10 μg/mL),X (MIC of less than 1 μg/mL),X (MIC of less than 1 μg/mL),Y (MIC of 1 μg/mL to 10 μg/mL),Y (MIC of 1 μg/mL to 10 μg/mL),Y (key: X: MIC of less than 1 ng/mL; Y: MIC of 1 μg/mL to 10 μg/mL; Z: MIC of greater than 10 μg/mL),< 0.001 µM,> 0.01 µM,> 0.01 µM,X (MIC of less than 1 μg/mL),> 0.01 µM,AZT MPC4 TEM-10 ec302 [22]: Y (MIC of 1 μg/mL to 10 μg/mL)
"CSCC(=O)N[C@H]1Cc2cccc(C(=O)O)c2OB1O [A, reference compound]",–,X (MIC of less than 1 ng/mL),–,X (MIC of less than 1 ng/mL),Y (key: X: MIC of less than 1 ng/mL; Y: MIC of 1 μg/mL to 10 μg/mL; Z: MIC of greater than 10 μg/mL),X (key: X: MIC of less than 1 ng/mL; Y: MIC of 1 μg/mL to 10 μg/mL; Z: MIC of greater than 10 μg/mL),X (MIC of less than 1 μg/mL),X (MIC of less than 1 ng/mL),X (key: X: MIC of less than 1 ng/mL; Y: MIC of 1 μg/mL to 10 μg/mL; Z: MIC of greater than 10 μg/mL),X (key: X: MIC of less than 1 μg/mL; Y: MIC of 1 μg/mL to 10 μg/mL; Z: MIC of greater than 10 μg/mL),X (MIC of less than 1 μg/mL),X (MIC of less than 1 μg/mL),Y (MIC of 1 μg/mL to 10 μg/mL),Y (MIC of 1 μg/mL to 10 μg/mL),X (key: X: MIC of less than 1 μg/mL; Y: MIC of 1 μg/mL to 10 μg/mL; Z: MIC of greater than 10 μg/mL),–,–,–,–,0.001 to 0.01 µM,AZT MPC4 SHV-12 KP1010 [10]: X (key: X: MIC of less than 1 ng/mL; Y: MIC of 1 μg/mL to 10 μg/mL; Z: MIC of greater than 10 μg/mL)
"CSCC(=O)N[C@H]1Cc2ccc(Sc3nnc(N)s3)c(C(=O)O)c2OB1O [Compound 21, (R)-7-(5-amino-1,3,4-thiadiazol-2-ylthio)-2-hydroxy-3-(2-(methylthio)acetamido)-3,4-dihydro-2H-benzo[e][1,2]oxaborinine-8-carboxylic acid]",< 0.001 µM,–,< 0.001 µM,Y (MIC of 1 μg/mL to 10 μg/mL),Y (key: X: MIC of less than 1 ng/mL; Y: MIC of 1 μg/mL to 10 μg/mL; Z: MIC of greater than 10 μg/mL),Y (key: X: MIC of less than 1 ng/mL; Y: MIC of 1 μg/mL to 10 μg/mL; Z: MIC of greater than 10 μg/mL),Y (MIC of 1 μg/mL to 10 μg/mL),Y (MIC of 1 μg/mL to 10 μg/mL),Y (key: X: MIC of less than 1 ng/mL; Y: MIC of 1 μg/mL to 10 μg/mL; Z: MIC of greater than 10 μg/mL),X (key: X: MIC of less than 1 μg/mL; Y: MIC of 1 μg/mL to 10 μg/mL; Z: MIC of greater than 10 μg/mL),Y (MIC of 1 μg/mL to 10 μg/mL),Y (MIC of 1 μg/mL to 10 μg/mL),Z (MIC of greater than 10 μg/mL),Y (MIC of 1 μg/mL to 10 μg/mL),X (key: X: MIC of less than 1 μg/mL; Y: MIC of 1 μg/mL to 10 μg/mL; Z: MIC of greater than 10 μg/mL),< 0.001 µM,> 0.01 µM,> 0.01 µM,Y (MIC of 1 μg/mL to 10 μg/mL),> 0.01 µM,% Monomer in 1 mg/mL salt solution [23]: 98.1%; AZT MPC4 KPC-2 KP1004 [24]: Y (MIC of 1 μg/mL to 10 μg/mL); AZT MPC4 TEM-10 ec302 [22]: Y (MIC of 1 μg/mL to 10 μg/mL)
"CSCC(=O)N[C@H]1Cc2c(F)cc(F)c(C(=O)O)c2OB1O [Compound 32, (R)-5,7-difluoro-2-hydroxy-3-(2-(methylthio)acetamido)-3,4-dihydro-2H-benzo[e][1,2]oxaborinine-8-carboxylic acid]",0.001 to 0.01 µM,Y (MIC of 1 μg/mL to 10 μg/mL),0.001 to 0.01 µM,Y (MIC of 1 μg/mL to 10 μg/mL),Z (key: X: MIC of less than 1 ng/mL; Y: MIC of 1 μg/mL to 10 μg/mL; Z: MIC of greater than 10 μg/mL),Y (key: X: MIC of less than 1 ng/mL; Y: MIC of 1 μg/mL to 10 μg/mL; Z: MIC of greater than 10 μg/mL),Y (MIC of 1 μg/mL to 10 μg/mL),Y (MIC of 1 μg/mL to 10 μg/mL),Y (key: X: MIC of less than 1 ng/mL; Y: MIC of 1 μg/mL to 10 μg/mL; Z: MIC of greater than 10 μg/mL),X (key: X: MIC of less than 1 μg/mL; Y: MIC of 1 μg/mL to 10 μg/mL; Z: MIC of greater than 10 μg/mL),X (MIC of less than 1 μg/mL),Y (MIC of 1 μg/mL to 10 μg/mL),Y (MIC of 1 μg/mL to 10 μg/mL),Y (MIC of 1 μg/mL to 10 μg/mL),Y (key: X: MIC of less than 1 ng/mL; Y: MIC of 1 μg/mL to 10 μg/mL; Z: MIC of greater than 10 μg/mL),< 0.001 µM,> 0.01 µM,> 0.01 µM,Y (MIC of 1 μg/mL to 10 μg/mL),> 0.01 µM,% Monomer in 1 mg/mL salt solution [23]: 95.8%; AZT MPC4 KPC-2 KP1004 [24]: Y (MIC of 1 μg/mL to 10 μg/mL); AZT MPC4 TEM-10 ec302 [22]: Y (MIC of 1 μg/mL to 10 μg/mL)
